Measured values reported in patent publication US11779590B2, “AMP-activated protein kinase activating compounds and uses thereof” (Skylark Bioscience LLC, priority 2020, dated 2023).

How the values were obtained:
[1] = dosed orally; cited from earlier work
HEK293 cells = experiment: HEK293 cytotoxicity assay (CC50, CellTiterGlo); format: cell-based, human
Description: Some exemplary assays and examples for assessing therapeutic efficacy, e.g., anticancer effects, of exemplary compounds of the invention are described herein or well known in the art. HEK293 is a human kidney cell line, and efficacy on HEK293 is considered to be predictive of usefulness for therapeutic treatment.
HEK293 cells were obtained from American Type Culture Collection (ATCC) (Rockville Maryland). Cells were maintained in Dulbecco's modified Eagle's medium (DMEM) (Invitrogen, Carlsbad, CA) with 10% fetal bovine serum (FBS), 10 mM HEPES and 1 mM sodium pyruvate. Cells were grown at 37° C. in a humidified incubator with a gas phase of 5% C02. Cells were grown for 24 hours in a Tripleflask (NUNC) to ˜95% confluence and then resuspended for dispensing at 125,000 cells/mL of DMEM, 10% FBS, 10 mM Hepes and 1 mM sodium pyruvate.
HEK293 cells were seeded in 96 well microtiter plates at 10000 cells/well. After 24 hours of incubation an equal volume of fresh media containing test compounds at given concentrations was added. Plates were then incubated and cells were allowed to proliferate for 48 hours at 37° C., 95% humidity, and 5% C02. […] A solution of Promega CellTiterGlo (100 microliters) was added by Thermo Combi and the plates were allowed to sit for 10 minutes before reading on a Perkin-Elmer EnVision with US LUM settings for 0.1 sec per well. […]

NC(=O)c1ncn([C@@H]2O[C@H](CO)[C@@H](O)[C@H]2O)c1N [AICAR, 5-amino-1-D-ribofuranosyl-1H-imidazole-4-carboxamide]
bioavailability [1]: very low

NC(=O)c1ncn([C@@H]2O[C@H](COP(=O)(O)Oc3ccc([N+](=O)[O-])cc3)[C@@H](O)[C@H]2O)c1N [SB00039]
potency relative to AICAR on HEK293 cells (HEK293 cells; ratio of potency (CC50) versus AICAR): roughly 100 times

COP(=O)(OC)OC[C@H]1O[C@@H](n2cnc(C(N)=O)c2N)[C@H](O)[C@@H]1O [SB00024]
activity on HEK293 cells (CC50 assay) (HEK293 cells; at 500 uM): inactive
